The Ki is the equilibrium dissociation constant of an inhibitor or competing ligand from its target. Lower therefore signals tighter binding.

These results are taken from patent US9469615B2, “Quinoxalines and AZA-quinoxalines as CRTH2 receptor modulators” (Merck Sharp & Dohme Corp., priority 2010, dated 2016).

The target in the test is T1, hCRTH2 (Homo sapiens, UniProt Q9Y5Y4).
T1 construct: expressed in transfected cells; host or cells: HEK (human embryonic kidney) cells expressing hCRTH2; membrane preparation
T1 sequence (Q9Y5Y4 1-395): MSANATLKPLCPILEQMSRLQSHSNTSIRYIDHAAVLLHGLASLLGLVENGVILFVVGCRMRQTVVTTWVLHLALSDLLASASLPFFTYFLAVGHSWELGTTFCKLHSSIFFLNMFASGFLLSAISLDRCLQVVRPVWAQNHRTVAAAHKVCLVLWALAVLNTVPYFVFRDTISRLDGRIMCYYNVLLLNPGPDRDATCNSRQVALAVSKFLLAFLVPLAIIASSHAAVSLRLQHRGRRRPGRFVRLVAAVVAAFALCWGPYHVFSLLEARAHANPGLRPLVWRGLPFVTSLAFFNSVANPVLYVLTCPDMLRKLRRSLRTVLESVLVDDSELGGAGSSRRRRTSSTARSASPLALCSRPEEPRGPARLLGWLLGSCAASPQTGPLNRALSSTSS
Nature of the test: Radioligand binding assay ([3H]PGD2 competition, HEK-hCRTH2 membranes). Particulars: [3H]PGD2 binding. In outline:
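HEK-hCRTH2 membranes, 8-20 μg; [3H]PGD2 3.0 nM; 50 mM Tris-HCl pH 7.4/1 mM EDTA/2 mM MnCl2; DMSO 1%; 60 min RT; NSB 10 μM PGD2; filtration, scintillation counting.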

The compound `O=C(O)CCCCc1nc2cc(C(=O)N3CCC(c4ccccc4)CC3)ccc2nc1-c1ccc(C(F)(F)F)nc1` [26K, 7-[(4-phenyl-1-piperidinyl)carbonyl]-3-[6-(trifluoromethyl)-3-pyridinyl]-2-quinoxalinepentanoic acid] registered a Ki (rated A-E (Table A)) of 2.1 to 20 nM. Under “rated A-E (Table A)”, `O=C(O)CCCCc1nc2cc(C(=O)N3CCC(c4ccccc4)CC3)ccc2nc1-c1ccccc1Cl` [26L, 3-(2-chlorophenyl)-7-[(4-phenyl-1-piperidinyl)carbonyl]-2-quinoxalinepentanoic acid] showed a Ki of 2.1 to 20 nM. On to `O=C(O)CCCCc1nc2cc(C(=O)N3CCC(c4ccccc4)CC3)ccc2nc1-c1cccnc1` [26M, 7-[(4-phenyl-1-piperidinyl)carbonyl]-3-(3-pyridinyl)-2-quinoxalinepentanoic acid], for which the Ki (rated A-E (Table A)) was 2.1 to 20 nM. Regarding `O=C(O)CCCCc1nc2cc(C(=O)N3CCC(c4ccccc4)CC3)ccc2nc1-c1ccc(OC(F)(F)F)cc1` [26N, 7-[(4-phenyl-1-piperidinyl)carbonyl]-3-[4-(trifluoromethoxy)phenyl]-2-quinoxalinepentanoic acid], the Ki (rated A-E (Table A)) is 0.1 to 2 nM.

In the case of `N#Cc1ccc(-c2nc3ccc(C(=O)N4CCC(c5ccccc5)CC4)cc3nc2CCCCC(=O)O)cc1` [26P, 3-(4-cyanophenyl)-7-[(4-phenyl-1-piperidinyl)carbonyl]-2-quinoxalinepentanoic acid], the inhibition constant Ki (rated A-E (Table A)) lay within 2.1 to 20 nM. As for `O=C(O)CCCCc1nc2cc(C(=O)N3CCC(c4ccccc4)CC3)ccc2nc1-c1cncnc1` [26Q, 7-[(4-phenyl-1-piperidinyl)carbonyl]-3-(5-pyrimidinyl)-2-quinoxalinepentanoic acid], the Ki runs as follows: (rated A-E (Table A)) 20.1 to 200 nM; (values in text) 96.7 nM. Consider `O=C(O)CCCCc1nc2cc(C(=O)N3CCC(c4ccccc4)CC3)ccc2nc1-c1cncc(Cl)c1` [26R, 3-(5-chloro-3-pyridinyl)-7-[(4-phenyl-1-piperidinyl)carbonyl]-2-quinoxalinepentanoic acid], for which the Ki (rated A-E (Table A)) was in the range of 20.1 to 200 nM. As for `O=C(O)CCCCc1nc2cc(C(=O)N3CCC(c4ccccc4)CC3)ccc2nc1-c1ccsc1` [26S, 7-[(4-phenyl-1-piperidinyl)carbonyl]-3-(3-thienyl)-2-quinoxalinepentanoic acid], the Ki (rated A-E (Table A)) lay in the range of 0.1 to 2 nM.

`Cn1cc(-c2nc3ccc(C(=O)N4CCC(c5ccccc5)CC4)cc3nc2CCCCC(=O)O)cn1` [26T, 3-(1-methyl-1H-pyrazol-4-yl)-7-[(4-phenyl-1-piperidinyl)carbonyl]-2-quinoxalinepentanoic acid]: where the note is “rated A-E (Table A)”, the Ki was 2.1 to 20 nM.

With `CC(=O)c1ccccc1-c1nc2ccc(C(=O)N3CCC(c4ccccc4)CC3)cc2nc1CCCCC(=O)O` [26U, 3-(2-acetylphenyl)-7-[(4-phenyl-1-piperidinyl)carbonyl]-2-quinoxalinepentanoic acid], the Ki (rated A-E (Table A)) lay in the range of 2.1 to 20 nM.

On to `COc1cc(C(F)(F)F)ccc1-c1nc2ccc(C(=O)N3CCC(c4ccccc4)CC3)cc2nc1CCCCC(=O)O` [26V, 3-[2-methoxy-4-(trifluoromethyl)phenyl]-7-[(4-phenyl-1-piperidinyl)carbonyl]-2-quinoxalinepentanoic acid], for which the Ki (rated A-E (Table A)) was 0.1 to 2 nM. The same measure, in the same setting: the result for `COc1ccc(-c2nc3ccc(C(=O)N4CCC(c5ccccc5)CC4)cc3nc2CCCCC(=O)O)c(Cl)c1` [26W, 3-(2-chloro-4-methoxyphenyl)-7-[(4-phenyl-1-piperidinyl)carbonyl]-2-quinoxalinepentanoic acid] reads 0.1 to 2 nM; that for `CS(=O)(=O)c1ccc(-c2nc3ccc(C(=O)N4CCC(c5ccccc5)CC4)cc3nc2CCCCC(=O)O)cc1` [26X], 20.1 to 200 nM; that for `O=C(O)CCCCc1nc2cc(C(=O)N3CCC(c4ccccc4)CC3)ccc2nc1-c1ccc(Cl)cc1Cl` [26Y, 3-(2,4-dichlorophenyl)-7-[(4-phenyl-1-piperidinyl)carbonyl]-2-quinoxalinepentanoic acid], 0.1 to 2 nM. Same read-out and setting: the same measure for `COc1ccc(-c2nc3ccc(C(=O)N4CCC(c5ccccc5)CC4)cc3nc2CCCCC(=O)O)c(OC)c1` [26Z, 3-(2,4-dimethoxyphenyl)-7-[(4-phenyl-1-piperidinyl)carbonyl]-2-quinoxalinepentanoic acid]: 0.1 to 2 nM; for `O=C(O)CCCCc1nc2cc(C(=O)N3CCC(c4ccccc4)C3)ccc2nc1-c1cc(F)cc(F)c1` (stereo not drawn) [26i, 3-(3,5-difluorophenyl)-7-[(3-phenyl-1-pyrrolidinyl)carbonyl]-2-quinoxalinepentanoic acid]: 2.1 to 20 nM. For `COc1ccc(-c2nc3ccc(C(=O)N4CCC(c5ccccc5)CC4)cc3nc2CCCCC(=O)O)cc1` [26o, 3-(4-methoxyphenyl)-7-[(4-phenyl-1-piperidinyl)carbonyl]-2-quinoxalinepentanoic acid], the Ki was 0.1 to 2 nM (rated A-E (Table A)) and 1.4 nM (values in text). Compound `C[C@@H](NC(=O)c1ccc2nc(-c3ccc(Cl)cc3)c(CC3CC(C(=O)O)C3)nc2c1)c1ccc(F)cc1` (stereo partly drawn) [30E] registered a Ki (rated A-E (Table A)) of 2.1 to 20 nM. Still for that read-out and setting: the result for `O=C(O)CCCCc1nc2cc(C(=O)N3CC(c4nc5ccccc5o4)C3)ccc2nc1-c1ccccc1` [31C] reads 2.1 to 20 nM; that for `C[C@@H](NC(=O)c1ccc2nc(-c3ccccc3)c(NCCCC(=O)O)nc2c1)c1ccc(F)cc1` [44D, (R)-4-((7-((1-(4-fluorophenyl)ethyl)carbamoyl)-3-phenylquinoxalin-2-yl)amino)butanoic acid], 2.1 to 20 nM.

As to `O=C(O)CCCNc1nc2cc(C(=O)N[C@@H]3CCCc4cc(F)ccc43)ccc2nc1-c1ccccc1` [44E, (R)-4-((7-((6-fluoro-1,2,3,4-tetrahydronaphthalen-1-yl)carbamoyl)-3-phenylquinoxalin-2-yl)amino)butanoic acid], the inhibition constant (Ki) (rated A-E (Table A)) was in the range of 2.1 to 20 nM. `O=C(O)CCCNc1nc2cc(C(=O)N3CCN(c4ccccc4)CC3)ccc2nc1-c1ccccc1` [44F, 4-((3-phenyl-7-(4-phenylpiperazine-1-carbonyl)quinoxalin-2-yl)amino)butanoic acid] returned a Ki (rated A-E (Table A)) of 2.1 to 20 nM. Where the note is “rated A-E (Table A)”, `C[C@@H](NC(=O)c1ccc2nc(-c3ccccc3)c(NCCCC(=O)O)nc2c1)c1ccc(C#N)cc1` [44G] had a Ki of 20.1 to 200 nM.

Turning to `O=C(O)CCCNc1nc2cc(C(=O)N3CCN(c4ccc(F)cc4)CC3)ccc2nc1-c1ccccc1` [44H, 4-((7-(4-(4-fluorophenyl)piperazine-1-carbonyl)-3-phenylquinoxalin-2-yl)amino)butanoic acid], the Ki was 2.1 to 20 nM (rated A-E (Table A)) and 3.1 nM (values in text). With `O=C(O)CCCNc1nc2cc(C(=O)N3CCC(c4ccc(F)cc4)CC3)ccc2nc1-c1ccccc1` [44J, 4-((7-(4-(4-fluorophenyl)piperidine-1-carbonyl)-3-phenylquinoxalin-2-yl)amino)butanoic acid], under “rated A-E (Table A)”, the Ki lay in the range of 2.1 to 20 nM. Turning to `O=C(O)CCCNc1nc2cc(C(=O)N3CCC(c4ccc(Cl)cc4)CC3)ccc2nc1-c1ccccc1` [44K, 4-((7-(4-(4-chlorophenyl)piperidine-1-carbonyl)-3-phenylquinoxalin-2-yl)amino)butanoic acid], under “rated A-E (Table A)”, the Ki was in the range of 0.1 to 2 nM. Same read-out and setting: the same measure for `O=C(O)CCCNc1nc2cc(C(=O)N3CCN(c4ccc(Cl)cc4)CC3)ccc2nc1-c1ccccc1` [44L, 4-((7-(4-(4-chlorophenyl)piperazine-1-carbonyl)-3-phenylquinoxalin-2-yl)amino)butanoic acid]: 2.1 to 20 nM.

For the setting “rated A-E (Table A)”, `O=C(O)CCCNc1nc2cc(C(=O)N3CC[C@H](c4ccccc4)C3)ccc2nc1-c1ccccc1` [44M, (R)-4-((3-phenyl-7-(3-phenylpyrrolidine-1-carbonyl)quinoxalin-2-yl)amino)butanoic acid] registered a Ki of 2.1 to 20 nM. In turn, `C[C@@H]1CN(c2ccccc2)CCN1C(=O)c1ccc2nc(-c3ccccc3)c(NCCCC(=O)O)nc2c1` [44N, (R)-4-((7-(2-methyl-4-phenylpiperazine-1-carbonyl)-3-phenylquinoxalin-2-yl)amino)butanoic acid] gave a Ki (rated A-E (Table A)) of 2.1 to 20 nM. On the same count and under the same terms, the result for `O=C(O)CCCNc1nc2cc(C(=O)N[C@@H]3CCCc4ccccc43)ccc2nc1-c1ccccc1` [44i, (R)-4-((3-phenyl-7-((1,2,3,4-tetrahydronaphthalen-1-yl)carbamoyl)quinoxalin-2-yl)amino)butanoic acid] reads 0.1 to 2 nM.

`O=C(O)CCCCc1nc2cc(C(=O)C3CC3)ccc2nc1-c1cccc(F)c1` [compound 3, 5-[7-(Cyclopropanecarbonyl)-3-(3-fluorophenyl)quinoxalin-2-yl]pentanoic Acid]: the Ki (rated A-E (Table A)) fell in the range of 2.1 to 20 nM and the inhibitory constant (Ki) (values in text) is 3.2 nM. `C[C@H](NC(=O)c1ccc2nc(-c3ccc(C(F)(F)F)cc3)c(CCCCC(=O)O)nc2c1)c1cccc(-c2ccccc2)c1` [compound 4, (S)-5-{7-[1-(biphenyl-3-yl)ethylcarbamoyl]-3-[4-(trifluoromethyl)phenyl]quinoxalin-2-yl}pentanoic Acid] had a Ki (rated A-E (Table A)) of 2.1 to 20 nM. As for `O=C(O)CCCCc1nc2cc(C(=O)C3CC3)ccc2nc1-c1ccc(F)cc1` [compound 5, 5-(7-(cyclopropanecarbonyl)-3-(4-fluorophenyl)quinoxalin-2-yl)pentanoic acid], the Ki (rated A-E (Table A)) was in the range of 0.1 to 2 nM. Same read-out and setting: the result for `CCC(=O)c1ccc2nc(-c3ccccc3)c(CCCCC(=O)O)nc2c1` [compound 6, 7-(1-oxopropyl)-3-phenyl-2-quinoxalinepentanoic acid] reads 0.1 to 2 nM.

Take `CNC(=O)c1ccc2nc(-c3ccc(F)cc3)c(CCCCC(=O)O)nc2c1` [compound 7, 3-(4-fluorophenyl)-7-[(methylamino)carbonyl]-2-quinoxalinepentanoic acid]: for the setting “rated A-E (Table A)”, the Ki was 2.1 to 20 nM.
